{"source": "patent US20260240888A1", "about": "“METHODS AND PHARMACEUTICAL COMPOSITIONS FOR TREATING AGE-RELATED DISEASES” (Neurxstem, priority 2023, published 2026)", "key": {"[1]": {"conditions": "cited from earlier work"}, "[2]": {"tested_on": "AD-NNOP-ApoE neural organoids", "assay": "Gene expression (Ampliseq transcriptomics) in AD-NNOP-ApoE neural organoids treated with CGS-21680", "assay_type": "cell-based, human", "excerpt": "Reads in counts per minute (cpm)<1 are considered background noise. All cpm data are normalized data and the reads are a direct representation of the abundance of the RNA for each gene.\nExpression of differentially expressed genes in PG-NNOP neural organoids compared to Normal-NNOP in culture for 12 weeks."}, "PG-NNOP neural organoids": {"tested_on": "PG-NNOP neural organoids", "assay": "Gene expression (Ampliseq transcriptomics) in PG-NNOP neural organoids treated with drug", "assay_type": "cell-based, human", "description": "Furthermore, in one embodiment RNA from neural organoids for Alzheimer's disease, are converted to DNA libraries and then the representative DNA libraries are sequenced using exon-specific primers for 20,814 genes using the AmpliSeq™ technique available commercially from ThermoFisher. Reads in counts per […] (cpm)<1 are considered background noise. All cpm data are normalized data and the reads are a direct representation of the abundance of the RNA for each gene. In another informative embodiment, RNA from neural organoids for Progeroid syndromes were converted to DNA libraries and then sequenced according to this protocol.\nNeural Organoids derived from induced pluripotent stem cells derived from adult skin cells of AD, ADRD, MED, or Hutchinson Gilford progeria (PG) patients were grown in vitro for […] as previous described in U.S. Pat. No. 11,435,890, incorporated by reference in its entirety herein. Transcriptomic data from these neural organoids were obtained. Differences in expression of 20,814 genes expressed in the human genome were determined between these neural organoids and those from neural organoids from a normal individual human (an individual not having/diagnosed with AD, ADRD, MED, or Progeroid syndromes). Detailed data analysis using Gene Card and Pubmed data bases were performed. […] These genes comprise a suite of biomarkers for Alzheimer's disease.\nThus, given the overlap in transcriptomic profile of AD and PG, experiments were set out to test the effect of targeting this receptor on PG-NNOP. FAAH inhibitor PF-3845, which is known to raise endogenous levels of endocannabinoid anandamide receptor agonist anandamide and increase endocannabinoid anandamide receptor activity, was tested for effects on gene expression dysregulation in PG-NNOP platform cells as set forth herein (Table 7). […] As the log 2 fold numbers reveal, the direction of the change in gene expression was completely reversed in some biomarkers by PF-3845, or the change was reduced by PF-3845. Thus, PF-3845 was capable of reverting the biomarkers of PG to normalcy.\nExpression of differentially expressed genes in PG-NNOP neural organoids compared to Normal-NNOP in culture for 12 weeks is shown, as well as expression of differentially expressed genes in PG-NNOP neural organoids with PF-3845 treatment compared to PG-NNOP without drug treatment in culture for 12 weeks. […] PG-NNOP neural organoids were incubated with vehicle (0.1% DMSO; control) or PF-3845 dissolved in DMSO at 10microM for 4 days and harvested for RNA extraction and gene expression analysis by Ampliseq™ (Thermofisher). Log 2 fold change with a positive value indicates a decrease in expression of a PG-NNOP gene when compared to Normal-NNOP or a PG-NNOP gene with FAAH-I compared to PG-NNOP without the drug treatment, and with a negative number indicates an increase in gene expression.\nExpression of differentially expressed genes in PG-NNOP neural organoids compared to Normal-NNOP in culture for 12 weeks and expression of differentially expressed genes in PG-NNOP neural organoids with metformin treatment compared to PG-NNOP without drug treatment in culture for 12 weeks is shown. […] PG-NNOP neural organoids were incubated with vehicle (HBBS; control) or metformin dissolved in HBBS at 0.28 mg/ml for 4 days and harvested for RNA extraction and gene expression analysis by Ampliseq™ (Thermofisher). Log 2 fold change with a positive value indicates a decrease in expression of a PG-NNOP gene when compared to Normal-NNOP or a PG-NNOP gene with Metformin compared to PG-NNOP without the drug treatment, and with a negative number indicates an increase in gene expression.\nExpression of differentially expressed genes in PG-NNOP neural organoids compared to Normal-NNOP in culture for 12 weeks and expression of differentially expressed genes in PG-NNOP neural organoids with rapamycin treatment compared to PG-NNOP without drug treatment in culture for 12 weeks is shown. […]"}, "[3]": {"conditions": "cited from earlier work", "remark": "listed apart in the source"}, "[4]": {"conditions": "0.28 mg/ml, 4 days, vs PG-NNOP without drug, positive = decrease in expression"}, "[5]": {"conditions": "10microM, 4 days, vs PG-NNOP without drug, positive = decrease in expression"}, "[6]": {"conditions": "50 nM, 4 days, vs PG-NNOP without drug, positive = decrease in expression"}}, "note": "Counter-ions that a name gives are not always drawn.", "data": [{"smiles": "CCNC(=O)[C@H]1O[C@@H](n2cnc3c(N)nc(C#CC[C@H]4CC[C@H](C(=O)OC)CC4)nc32)[C@H](O)[C@@H]1O", "note": "[Apadenoson, methyl (1R,4r)-4-(3-(6-amino-9-((2R,3R,4S,5S)-5-(ethylcarbamoyl)-3,4-dihydroxytetrahydrofuran-2-yl)-9H-purin-2-yl)prop-2-yn-1-yl)cyclohexane-1-carboxylate]", "values": [{"measurement": "solubility in DMSO", "setting": "[1]; DMSO", "result": "Soluble in DMSO"}]}, {"smiles": "CCNC(=O)[C@H]1O[C@@H](n2cnc3c(N)nc(NCCc4ccc(CCC(=O)O)cc4)nc32)[C@H](O)[C@@H]1O", "note": "[CGS-21680, 2-p-(2-Carboxyethyl) phenethylamino-5′-N-ethylcarboxamidoadenosine hydrochloride hydrate]", "values": [{"measurement": "effect on dysregulation of SLC7A5 and MT2A", "setting": "[2]", "result": "the dysregulation was corrected"}, {"measurement": "effect on gene expression dysregulated in both AD-ApoE-NNOP and PG-NNOP", "setting": "[2]; 1 micromolar", "result": "significantly altered gene expression"}, {"measurement": "effect on changes in expression of SELENBP1 and RARB in AD-ApoE-NNOP", "setting": "[2]; direction towards normalcy", "result": "reduced the changes in expression of both genes"}, {"measurement": "soluble in 45% (w/v) aq 2-hydroxypropyl-β-cyclodextrin", "setting": "[1]; 45% (w/v) aq 2-hydroxypropyl-β-cyclodextrin", "result": "≤ 20", "unit": "mg/mL"}, {"measurement": "soluble in DMSO", "setting": "[1]; DMSO", "result": "up to 3.4 mg/mL"}]}, {"smiles": "CN(C)C(=N)NC(=N)N", "note": "[Metformin]", "values": [{"measurement": "effect on dysregulated gene expression in PG-NNOP", "setting": "PG-NNOP neural organoids", "result": "shifted the gene expression towards normalcy"}, {"measurement": "Log2 Fold Change of CDK1 gene expression", "setting": "PG-NNOP neural organoids; [4]", "result": 0.52}, {"measurement": "Log2 Fold Change of CDKN1A gene expression", "setting": "PG-NNOP neural organoids; [4]", "result": "−0.35"}, {"measurement": "Log2 Fold Change of DNAJC1 gene expression", "setting": "PG-NNOP neural organoids; [4]", "result": "−0.26"}, {"measurement": "Log2 Fold Change of ID2 gene expression", "setting": "PG-NNOP neural organoids; [4]", "result": 0.86}, {"measurement": "Log2 Fold Change of LMNB2 gene expression", "setting": "PG-NNOP neural organoids; [4]", "result": "−0.42"}, {"measurement": "Log2 Fold Change of MT2A gene expression", "setting": "PG-NNOP neural organoids; [4]", "result": 2.06}, {"measurement": "Log2 Fold Change of POGZ gene expression", "setting": "PG-NNOP neural organoids; [4]", "result": 0.36}, {"measurement": "Log2 Fold Change of POLE3 gene expression", "setting": "PG-NNOP neural organoids; [4]", "result": "−0.25"}, {"measurement": "Log2 Fold Change of SLC35F1 gene expression", "setting": "PG-NNOP neural organoids; [4]", "result": "−0.47"}, {"measurement": "Log2 Fold Change of USP31 gene expression", "setting": "PG-NNOP neural organoids; [4]", "result": 0.67}, {"measurement": "Log2 Fold Change of VCP gene expression", "setting": "PG-NNOP neural organoids; [4]", "result": 0.33}, {"measurement": "Log2 Fold Change of WRN gene expression", "setting": "PG-NNOP neural organoids; [4]", "result": 0.71}]}, {"smiles": "O=C(Nc1cccnc1)N1CCC(Cc2cccc(Oc3ccc(C(F)(F)F)cn3)c2)CC1", "note": "[PF-3845, N-3-Pyridinyl-4-[[3-[[5-(trifluoromethyl)-2-pyridinyl]oxy]phenyl]methyl]-1-piperidinecarboxamide]", "values": [{"measurement": "effect on dysregulated gene expression in PG-NNOP", "setting": "PG-NNOP neural organoids", "result": "effective in correcting the gene expression that was altered in PG-NNOP"}, {"measurement": "Log2 Fold Change of CDKN1A gene expression", "setting": "PG-NNOP neural organoids; [5]", "result": 0.77}, {"measurement": "Log2 Fold Change of EZH2 gene expression", "setting": "PG-NNOP neural organoids; [5]", "result": "−0.5"}, {"measurement": "Log2 Fold Change of ID2 gene expression", "setting": "PG-NNOP neural organoids; [5]", "result": 0.35}, {"measurement": "Log2 Fold Change of IDI1 gene expression", "setting": "PG-NNOP neural organoids; [5]", "result": 1.15}, {"measurement": "Log2 Fold Change of LMNB2 gene expression", "setting": "PG-NNOP neural organoids; [5]", "result": "−0.67"}, {"measurement": "Log2 Fold Change of MT2A gene expression", "setting": "PG-NNOP neural organoids; [5]", "result": 2.77}, {"measurement": "Log2 Fold Change of SLC35F1 gene expression", "setting": "PG-NNOP neural organoids; [5]", "result": "−0.65"}, {"measurement": "Log2 Fold Change of SLC38A1 gene expression", "setting": "PG-NNOP neural organoids; [5]", "result": "−0.57"}, {"measurement": "Log2 Fold Change of USP31 gene expression", "setting": "PG-NNOP neural organoids; [5]", "result": 0.62}]}, {"smiles": "CO[C@H]1C[C@@H]2CC[C@@H](C)[C@@](O)(O2)C(=O)C(=O)N2CCCC[C@H]2C(=O)O[C@H]([C@H](C)C[C@@H]2CC[C@@H](O)[C@H](OC)C2)CC(=O)[C@H](C)/C=C(\\C)[C@@H](O)[C@@H](OC)C(=O)[C@H](C)C[C@H](C)/C=C/C=C/C=C/1C", "note": "[Rapamycin]", "values": [{"measurement": "effect on dysregulated gene expression in PG-NNOP", "setting": "PG-NNOP neural organoids", "result": "shifted the gene expression towards normalcy"}, {"measurement": "Log2 Fold Change of CDKN1A gene expression", "setting": "PG-NNOP neural organoids; [6]", "result": 1.21}, {"measurement": "Log2 Fold Change of IDI1 gene expression", "setting": "PG-NNOP neural organoids; [6]", "result": 1.48}, {"measurement": "Log2 Fold Change of LMNB2 gene expression", "setting": "PG-NNOP neural organoids; [6]", "result": "−0.96"}, {"measurement": "Log2 Fold Change of MT2A gene expression", "setting": "PG-NNOP neural organoids; [6]", "result": 3.23}, {"measurement": "Log2 Fold Change of POLE3 gene expression", "setting": "PG-NNOP neural organoids; [6]", "result": 0.75}, {"measurement": "Log2 Fold Change of SLC35F1 gene expression", "setting": "PG-NNOP neural organoids; [6]", "result": "−0.83"}, {"measurement": "Log2 Fold Change of SLC38A1 gene expression", "setting": "PG-NNOP neural organoids; [6]", "result": "−1.15"}, {"measurement": "Log2 Fold Change of USP36 gene expression", "setting": "PG-NNOP neural organoids; [6]", "result": 0.99}]}, {"smiles": "COc1ccc(C2CNC(=O)C2)cc1OC1CCCC1", "note": "(stereo not drawn) [Rolipram]", "values": [{"measurement": "IC50", "setting": "[3]", "result": 800, "unit": "nM"}]}]}
